Laboratory results published in PubChem BioAssay (NCI).
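Exposure lasted 48 hours, with cells grown in 96-well plates and compounds tested at five concentrations. TGI is the concentration that stops growth completely.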

Tests used:
Experiment in all cases: NCI anticancer screen, dose series, 48 h
MCF7 breast = system: MCF7 breast
IGROV1 ovarian = system: IGROV1 ovarian
UACC-257 melanoma = system: UACC-257 melanoma
CAKI-1 renal = system: CAKI-1 renal
HOP-62 NSCLC = system: HOP-62 NSCLC
T-47D breast = system: T-47D breast
NCI-H23 lung = system: NCI-H23 lung
MDA-N = system: MDA-N
NCI-H226 lung = system: NCI-H226 lung
HCC-2998 colon = system: HCC-2998 colon
LOX IMVI melanoma = system: LOX IMVI melanoma
U251 CNS = system: U251 CNS
786-0 renal = system: 786-0 renal
SF-268 CNS = system: SF-268 CNS
SK-MEL-5 melanoma = system: SK-MEL-5 melanoma
M14 melanoma = system: M14 melanoma
SW-620 colon = system: SW-620 colon
NCI/ADR-RES ovarian = system: NCI/ADR-RES ovarian
TK-10 renal = system: TK-10 renal
MOLT-4 leukemia = system: MOLT-4 leukemia
NCI-H460 lung = system: NCI-H460 lung
OVCAR-4 ovarian = system: OVCAR-4 ovarian
SNB-75 CNS = system: SNB-75 CNS
SR leukemia = system: SR leukemia
KM12 colon = system: KM12 colon
A549 NSCLC = system: A549 NSCLC
UACC-62 melanoma = system: UACC-62 melanoma
SF-539 CNS = system: SF-539 CNS
COLO 205 colon = system: COLO 205 colon
UO-31 renal = system: UO-31 renal
HT29 colon = system: HT29 colon
SK-MEL-28 melanoma = system: SK-MEL-28 melanoma
DU-145 prostate = system: DU-145 prostate
MALME-3M melanoma = system: MALME-3M melanoma
OVCAR-5 ovarian = system: OVCAR-5 ovarian
HCT-116 colon = system: HCT-116 colon
CCRF-CEM leukemia = system: CCRF-CEM leukemia
BT-549 breast = system: BT-549 breast
RXF 393 renal = system: RXF 393 renal
HCT-15 colon = system: HCT-15 colon
HS 578T breast = system: HS 578T breast
ACHN renal = system: ACHN renal
RPMI-8226 leukemia = system: RPMI-8226 leukemia
SNB-19 CNS = system: SNB-19 CNS
SF-295 CNS = system: SF-295 CNS
EKVX NSCLC = system: EKVX NSCLC
SN12C renal = system: SN12C renal
HL-60(TB) leukemia = system: HL-60(TB) leukemia
K-562 leukemia = system: K-562 leukemia
OVCAR-3 ovarian = system: OVCAR-3 ovarian
SK-OV-3 ovarian = system: SK-OV-3 ovarian
MDA-MB-231 breast = system: MDA-MB-231 breast
OVCAR-8 ovarian = system: OVCAR-8 ovarian
A498 renal = system: A498 renal
PC-3 prostate = system: PC-3 prostate

**Q.** With COc1ccccc1N1C(=O)C2C3c4ccccc4C(OC(C)=O)(c4ccccc43)C2C1=O (stereo not given) as the molecule, how does the TGI (MCF7 breast) read?
**A.** > 100 µM

**Q.** And the TGI (IGROV1 ovarian)?
**A.** > 100 µM

**Q.** And the TGI (UACC-257 melanoma)?
**A.** > 100 µM

**Q.** And the TGI (CAKI-1 renal)?
**A.** > 100 µM

**Q.** What about the TGI (HOP-62 NSCLC) of the same molecule?
**A.** > 100 µM

**Q.** And the TGI (T-47D breast)?
**A.** > 100 µM

**Q.** And the TGI (NCI-H23 lung)?
**A.** > 100 µM

**Q.** What about the TGI (MDA-N) of the same molecule?
**A.** > 100 µM

**Q.** And the TGI (NCI-H226 lung)?
**A.** > 100 µM

**Q.** What about the TGI (HCC-2998 colon) of the same molecule?
**A.** > 100 µM

**Q.** What about the TGI (LOX IMVI melanoma) of the same molecule?
**A.** > 100 µM

**Q.** And the TGI (U251 CNS)?
**A.** > 100 µM

**Q.** And the TGI (786-0 renal)?
**A.** > 100 µM

**Q.** What about the TGI (SF-268 CNS) of the same molecule?
**A.** > 100 µM

**Q.** What about the TGI (SK-MEL-5 melanoma) of the same molecule?
**A.** > 100 µM

**Q.** And the TGI (M14 melanoma)?
**A.** > 100 µM

**Q.** And the TGI (SW-620 colon)?
**A.** > 100 µM

**Q.** And the TGI (NCI/ADR-RES ovarian)?
**A.** > 100 µM

**Q.** And the TGI (TK-10 renal)?
**A.** > 100 µM

**Q.** What about the TGI (MOLT-4 leukemia) of the same molecule?
**A.** > 100 µM

**Q.** And the TGI (NCI-H460 lung)?
**A.** > 100 µM

**Q.** What about the TGI (OVCAR-4 ovarian) of the same molecule?
**A.** > 100 µM

**Q.** What about the TGI (SNB-75 CNS) of the same molecule?
**A.** 38.8 µM

**Q.** And the TGI (SR leukemia)?
**A.** > 100 µM

**Q.** And the TGI (KM12 colon)?
**A.** > 100 µM

**Q.** And the TGI (A549 NSCLC)?
**A.** > 100 µM

**Q.** What about the TGI (UACC-62 melanoma) of the same molecule?
**A.** > 100 µM

**Q.** What about the TGI (SF-539 CNS) of the same molecule?
**A.** > 100 µM

**Q.** What about the TGI (COLO 205 colon) of the same molecule?
**A.** > 100 µM

**Q.** And the TGI (UO-31 renal)?
**A.** > 100 µM

**Q.** And the TGI (HT29 colon)?
**A.** > 100 µM

**Q.** What about the TGI (SK-MEL-28 melanoma) of the same molecule?
**A.** > 100 µM

**Q.** And the TGI (DU-145 prostate)?
**A.** > 100 µM

**Q.** What about the TGI (MALME-3M melanoma) of the same molecule?
**A.** > 100 µM

**Q.** What about the TGI (OVCAR-5 ovarian) of the same molecule?
**A.** > 100 µM

**Q.** What about the TGI (HCT-116 colon) of the same molecule?
**A.** > 100 µM

**Q.** What about the TGI (CCRF-CEM leukemia) of the same molecule?
**A.** > 100 µM

**Q.** What about the TGI (BT-549 breast) of the same molecule?
**A.** > 100 µM

**Q.** What about the TGI (RXF 393 renal) of the same molecule?
**A.** > 100 µM

**Q.** What about the TGI (HCT-15 colon) of the same molecule?
**A.** > 100 µM

**Q.** What about the TGI (HS 578T breast) of the same molecule?
**A.** 52.1 µM

**Q.** What about the TGI (ACHN renal) of the same molecule?
**A.** > 100 µM

**Q.** What about the TGI (RPMI-8226 leukemia) of the same molecule?
**A.** > 100 µM

**Q.** What about the TGI (SNB-19 CNS) of the same molecule?
**A.** > 100 µM

**Q.** What about the TGI (SF-295 CNS) of the same molecule?
**A.** > 100 µM

**Q.** And the TGI (EKVX NSCLC)?
**A.** > 100 µM

**Q.** And the TGI (SN12C renal)?
**A.** > 100 µM

**Q.** And the TGI (HL-60(TB) leukemia)?
**A.** > 100 µM

**Q.** What about the TGI (K-562 leukemia) of the same molecule?
**A.** > 100 µM

**Q.** And the TGI (OVCAR-3 ovarian)?
**A.** > 100 µM

**Q.** What about the TGI (SK-OV-3 ovarian) of the same molecule?
**A.** > 100 µM

**Q.** And the TGI (MDA-MB-231 breast)?
**A.** > 100 µM

**Q.** What about the TGI (OVCAR-8 ovarian) of the same molecule?
**A.** > 100 µM

**Q.** What about the TGI (A498 renal) of the same molecule?
**A.** > 100 µM

**Q.** What about the TGI (PC-3 prostate) of the same molecule?
**A.** > 100 µM
